US9440930B2, “Substituted bicyclic dihydropyrimidinones and their use as inhibitors of neutrophil elastase activity” (Boehringer Ingelheim International GmbH, priority 2014, dated 2016)

Tests used:
Type in all cases: in vitro ADME
[1] = biological target: T1, cytochrome P450 2C9 (Homo sapiens, UniProt P11712); assay: Cytochrome P450 2C9 inhibition; details: human liver microsomes, Diclofenac hydroxylation
T1 construct: is assayed at 37° C. with human liver microsomes; from tissue; host or cells: human liver microsomes
T1 sequence (P11712 whole entry): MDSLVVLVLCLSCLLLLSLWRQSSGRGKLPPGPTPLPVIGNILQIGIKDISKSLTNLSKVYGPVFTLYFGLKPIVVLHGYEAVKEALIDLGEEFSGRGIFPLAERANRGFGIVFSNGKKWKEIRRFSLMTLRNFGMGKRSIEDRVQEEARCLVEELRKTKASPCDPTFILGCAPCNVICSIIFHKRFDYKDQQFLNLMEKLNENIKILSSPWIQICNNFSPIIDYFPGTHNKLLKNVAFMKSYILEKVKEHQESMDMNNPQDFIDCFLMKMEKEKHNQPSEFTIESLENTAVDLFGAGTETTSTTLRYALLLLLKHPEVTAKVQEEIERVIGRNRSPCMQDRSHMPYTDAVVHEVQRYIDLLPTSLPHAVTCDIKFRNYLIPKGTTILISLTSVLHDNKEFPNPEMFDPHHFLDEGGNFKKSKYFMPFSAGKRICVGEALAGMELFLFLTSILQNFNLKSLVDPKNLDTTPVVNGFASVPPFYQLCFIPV
Description: Assay for Determination of Cytochrome P450 2C9 Inhibition

[2] = Drug transport across human Caco-2 cells; details: pH 7.2, 37° C.
Description: Assay for Determination of Drug Transport Across Human Caco-2 Cells
The assay provides information on the potential of a compound to pass the cell membrane, on the extent of oral absorption as well as on whether the compound is actively transported by uptake and/or efflux transporters. For the measurement of permeability across polarized, confluent human cancer colon carcinoma cells 2 (Caco-2) cell monolayers grown on permeable filter supports are used as the in vitro absorption model.
Apparent permeability coefficients (PE) of the compounds across the Caco-2 monolayers are measured (pH 7.2, 37° C.) in apical-to-basal (AB) (absorptive) and basal-to-apical (BA) (secretory) transport direction. AB permeability (PEAB) represents drug absorption from the intestine into the blood and BA permeability (PEBA) drug secretion from the blood back into the intestine via both passive permeability as well as active transport mechanisms mediated by efflux and uptake transporters that are expressed on the Caco-2 cells. The compounds are assigned to permeability/absorption classes by comparison of the AB permeabilities with the AB permeabilities of reference compounds with known in vitro permeability and oral absorption in the human. Identical or similar permeabilities in both transport directions indicate passive permeation, vectorial permeability points to additional active transport mechanisms. […] Active transport is concentration-dependently saturable.
Caco-2 cells (1-2*10^5 cells/cm^2 area) are seeded on filter inserts (Costar transwell polycarbonate or PET filters, 0.4 μm pore size) and cultured (DMEM) for 10 to 25 days. Compounds are dissolved in appropriate solvent (like DMSO, 1-20 min stock solutions). Stock solutions are diluted with HTP-4 buffer (128.13 min NaCl, 5.36 min KCl, 1 mM MgSO4, 1.8 min CaCl2, 4.17 min NaHCO3, 1.19 min Na2HPO4×7H2O, 0.41 mM NaH2PO4×H2O, 15 min HEPES, 20 min glucose, pH 7.2) to prepare the transport solutions (typically 10 μM compound, final DMSO<=0.5%). The transport solution (TL) is applied to the apical or basolateral donor side for measuring A-B or B-A permeability (3 filter replicates), respectively. The receiver side contains HTP-4 buffer supplemented with 2% BSA. Samples are collected at the start and end of experiment from the donor and at various time intervals for up to 2 hours also from the receiver side for concentration measurement by LC-MS/MS or scintillation counting. Sampled receiver volumes are replaced with fresh receiver solution.

[3] = system: human hepatocytes; assay: Metabolic stability with human hepatocytes; details: human hepatocyte suspension, 1 μM compound, well stirred model
Experimental: Assay for the Determination of Metabolic Stability with Human Hepatocytes
The metabolic degradation of the test compound is assayed in a human hepatocyte suspension. Human hepatocytes (typically cryopreserved) are incubated in an appropriate buffer system (e.g. Dulbecco's modified eagle medium plus 3.5 μg glucagon/500 mL, 2.5 mg insulin/500 mL and 3.75 mg/500 mL hydrocortison) containing 5% species serum. Following a (typically) 30 min preincubation in an incubator (37° C., 10% CO2), 5 μl of test compound solution (80 μM; from 2 min stock solution in DMSO diluted 1:25 with medium) are added into 395 μl hepatocyte suspension (cell density in the range 0.25-5*10^6 cells/mL, typically 1*10^6 cells/mL; final concentration of test compound 1 μM, final DMSO concentration 0.05%). The cells are incubated for six hours (incubator, orbital shaker) and samples (25 μl) are taken at 0, 0.5, 1, 2, 4 and 6 hours. Samples are transferred into acetonitrile and pelleted by centrifugation (5 min). The supernatant is transferred to a new 96-deepwell plate, evaporated under nitrogen and resuspended. The decline of parent compound is analyzed by LC-MS/MS. […]

[4] = Metabolic stability with human liver microsomes; details: pooled human liver microsomes, pH 7.6; human liver microsomes 1 mg/ml, 1 μM compound, 37° C., NADPH; read-out: t1/2 INVITRO
[5] = biological target: T2, cytochrome P450 2C8 (Homo sapiens, UniProt P10632); assay: Cytochrome P450 2C8 inhibition; details: human liver microsomes, Amodiaquine deethylation
T2 construct: is assayed at 37° C. with human liver microsomes; from tissue; host or cells: human liver microsomes
T2 sequence (P10632 1-490): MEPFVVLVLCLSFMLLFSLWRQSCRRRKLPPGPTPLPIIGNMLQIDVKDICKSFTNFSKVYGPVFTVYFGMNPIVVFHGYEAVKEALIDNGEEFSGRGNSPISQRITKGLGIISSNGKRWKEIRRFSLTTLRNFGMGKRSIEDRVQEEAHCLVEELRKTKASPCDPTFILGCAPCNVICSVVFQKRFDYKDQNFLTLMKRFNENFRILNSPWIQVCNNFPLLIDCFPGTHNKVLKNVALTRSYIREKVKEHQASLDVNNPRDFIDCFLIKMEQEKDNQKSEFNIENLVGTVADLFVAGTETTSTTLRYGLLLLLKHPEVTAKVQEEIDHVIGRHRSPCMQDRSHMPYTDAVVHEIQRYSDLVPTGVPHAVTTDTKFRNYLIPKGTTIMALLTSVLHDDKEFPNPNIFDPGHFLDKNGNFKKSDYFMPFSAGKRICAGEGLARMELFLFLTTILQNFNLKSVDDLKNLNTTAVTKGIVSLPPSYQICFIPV
Description: Assay for Determination of Cytochrome P450 2C8 Inhibition

- IC50 [1]: > 50 µM
- Papp A→B at 10 µM ([2]; apical-to-basal, read-out: PEAB): 19 ×10⁻⁶ cm/s
- Papp B→A at 10 µM ([2]; basal-to-apical, read-out: PEBA): 97 ×10⁻⁶ cm/s
- predicted hepatic in vivo blood clearance [3]: 5 % human hepatic blood flow
- half-life at 1 μM [4]: > 2.17 h
- IC50 [5]: > 50 µM
Structure (SMILES): CN1C(=O)N(c2cccc(C(F)(F)F)c2)C2=C(C(=O)CCC2)[C@H]1c1ccc(C#N)cc1[S+](C)[O-] (single isomer, unassigned) [Example 2.2A, 3-Methanesulfinyl-4-[3-methyl-2,5-dioxo-1-(3-trifluoromethyl-phenyl)-1,2,3,4,5,6,7,8-octahydro-quinazolin-4-yl]-benzonitrile]
